Laboratory results as given in patent US9745335B2 (Blirt S.A., priority 2012, dated 2017).

Legend:
Candida albicans SC 5314 = test: antifungal activity in vitro, broader spectrum; assay type: cell-based
Method in brief: (§1)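 Read-out: A531 of the cell suspension after serial dilution of compound in RPMI 1640, pH 7.0, run per CLSI/NCCLS M27-A2 broth microdilution. Activity was derived from A531-versus-concentration plots.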

[1] = system: Candida parapsilosis DSM 5784; test: antifungal activity in vitro, broader spectrum; assay type: cell-based
Method in brief: as §1

[2] = system: Candida quilliermondii DSM 11947; test: antifungal activity in vitro, broader spectrum; assay type: cell-based
Method in brief: as §1

[3] = system: Trichoderma viride LOCK E159; test: antifungal activity in vitro, broader spectrum; assay type: cell-based
Method in brief: as §1

[4] = system: Candida stellatoidea CBS 1905; test: antifungal activity in vitro, broader spectrum; assay type: cell-based
Method in brief: as §1

[5] = system: Candida pseudotropicalis KKP 324; test: antifungal activity in vitro, broader spectrum; assay type: cell-based
Method in brief: as §1

[6] = system: Candida dubliniensis CBS 7987; test: antifungal activity in vitro, broader spectrum; assay type: cell-based
Method in brief: as §1

[7] = system: Candida lipolytica KKP 322; test: antifungal activity in vitro, broader spectrum; assay type: cell-based
Method in brief: as §1

[8] = system: Aspergillus niger LOCK E201; test: antifungal activity in vitro, broader spectrum; assay type: cell-based
Method in brief: as §1

Candida arborea KKP 319 = test: antifungal activity in vitro, broader spectrum; assay type: cell-based
Method in brief: as §1

[9] = system: Candida tropicalis KKP 334; test: antifungal activity in vitro, serial dilution in RPMI 1640; assay type: cell-based
Method in brief: (§2)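 Optical density at 531 nm served as the growth read-out. Values were plotted against compound concentration after serial dilution of each compound in RPMI 1640 medium buffered to pH 7.0, as in the M27-A2 yeast standard.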

[10] = system: Candida glabrata DSM 11226; test: as above; assay type: cell-based
Method in brief: as §2

[11] = system: Candida lusitaniae DSM 70102; test: as above; assay type: cell-based
Method in brief: as §2

Candida krusei DSM 6128 = test: as above; assay type: cell-based
Method in brief: as §2

[12] = system: Saccharomyces cerevisiae ATCC 9763; test: as above; assay type: cell-based; settings: RPMI 1640, pH 7.0
Method in brief: as §2

[13] = system: Candida albicans ATCC 10231; test: as above; assay type: cell-based
Method in brief: as §2

Human erythrocytes = test: hemotoxicity determination (hemolytic activity); assay type: cell-based
Method in brief: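 Human erythrocytes (2×10^7/ml in saline) were incubated with serially diluted compound for 30 min at 37 °C and then centrifuged. Released haemoglobin was read at A540 against a 0.1% Triton X-100 full-lysis control. EH50 is the interpolated concentration giving 50% of the control A540.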

HepG2 cells = test: cytotoxic activity against mammalian cells in tissue culture (MTT); assay type: cell-based, human
CCRF-CEM cells = test: as above; assay type: cell-based, human
LLC-PK1 cells = test: as above; assay type: cell-based, pig
[14] = system: Candida albicans clinical strain F5 (CaMdr1p); test: antifungal activity against MDR fungal strains and parents; assay type: cell-based; settings: C. albicans F5 (CaMdr1p), fluconazole-resistant
Method in brief: as §2

[15] = system: Candida albicans strain STY31; test: as above; assay type: cell-based; settings: C. albicans STY31, 5674 derivative, deletion of CDR1 and CDR2
Method in brief: as §2

[16] = system: Candida albicans clinical strain Gu4; test: as above; assay type: cell-based; settings: C. albicans Gu4, fluconazole sensitive, parent strain for Gu5
Method in brief: as §2

[17] = system: Candida albicans clinical strain B3; test: as above; assay type: cell-based; settings: C. albicans B3, fluconazole sensitive, parent strain for B4
Method in brief: as §2

[18] = system: Candida albicans clinical strain B4 (CaMdr1p); test: as above; assay type: cell-based; settings: C. albicans B4 (CaMdr1p), fluconazole-resistant
Method in brief: as §2

[19] = system: Candida albicans clinical strain F2; test: as above; assay type: cell-based; settings: C. albicans F2, fluconazole sensitive, parent strain for F5
Method in brief: as §2

[20] = system: Candida albicans strain 5674 (CaCdr1p, CaCdr2p); test: as above; assay type: cell-based; settings: C. albicans 5674 (CaCdr1p, CaCdr2p)
Method in brief: as §2

[21] = system: Candida albicans clinical strain Gu5 (CaCdr1p, CaCdr2p); test: as above; assay type: cell-based; settings: C. albicans Gu5 (CaCdr1p, CaCdr2p), fluconazole-resistant
Method in brief: as §2

[22] = system: Candida albicans strain STY7 (CaCdr1p); test: as above; assay type: cell-based; settings: C. albicans STY7 (CaCdr1p), 5674 derivative, deletion of CDR2
Method in brief: as §2

C[C@@H]1[C@H](O)[C@@H](C)/C=C/C=C/C=C/C=C/C=C/C=C/C=C/[C@H](O[C@@H]2O[C@H](C)[C@@H](O)[C@H](NC(=S)NCCN3CCCCC3)[C@@H]2O)C[C@@H]2O[C@](O)(C[C@@H](O)C[C@@H](O)[C@H](O)CC[C@@H](O)C[C@@H](O)CC(=O)O[C@H]1C)C[C@H](O)[C@H]2C(=O)O [Compound A22, N-{[3-(2-piperidin-1-yl)ethyl]thioureidyl}amphotericin B]
Antifungal activity MIC (Candida albicans SC 5314): 2 µg/mL
Antifungal activity MIC [1]: 2 µg/mL
Antifungal activity MIC [2]: 1 µg/mL
Antifungal activity MIC [3]: 2 µg/mL
Antifungal activity MIC [4]: 1 µg/mL
Antifungal activity MIC [5]: 2 µg/mL
Antifungal activity MIC [6]: 1 µg/mL
Antifungal activity MIC [7]: 1 µg/mL
Antifungal activity MIC [8]: 2 µg/mL
Antifungal activity MIC (Candida arborea KKP 319): 2 µg/mL
Antifungal activity MIC [9]: 1 µg/mL
Antifungal activity MIC [10]: 4 µg/mL
Antifungal activity MIC [11]: 1 µg/mL
Antifungal activity MIC (Candida krusei DSM 6128): 2 µg/mL
Antifungal activity IC50 ([12]; Saccharomyces cerevisiae ATCC 9763 (first head over MIC and IC50)): 0.71 µg/mL
Antifungal activity MIC ([12]; Saccharomyces cerevisiae ATCC 9763): 1 µg/mL
Antifungal activity MIC [13]: 1 µg/mL
Hemotoxi EH50 (Human erythrocytes): >100 µg/mL
IC50 (cytotoxic activity) (HepG2 cells): >100 µg/mL
IC50 (cytotoxic activity) (CCRF-CEM cells): >100 µg/mL
IC50 (cytotoxic activity) (LLC-PK1 cells): >100 µg/mL
Antifungal activity MIC [14]: 8 µg/mL
Antifungal activity MIC [15]: 2 µg/mL
Antifungal activity MIC [16]: 0.25 µg/mL
Antifungal activity MIC [17]: 0.25 µg/mL
Antifungal activity MIC [18]: 4 µg/mL
Antifungal activity MIC [19]: 4 µg/mL
Antifungal activity MIC [20]: 1 µg/mL
Antifungal activity MIC [21]: 2 µg/mL
Antifungal activity MIC [22]: 2 µg/mL
